Experimental data as given in the NIST ThermoML archive (doi:10.1021/je800224k).

CCn1cc[n+](C)c1.F[P-](F)(F)(F)(F)F [1-ethyl-3-methylimidazolium hexafluorophosphate]
Details	mass density [kg/m3]
312.8 K, 10000 kPa, Crystal, Bellows volumetry	1562
312.8 K, 20000 kPa, Crystal, Bellows volumetry	1565
312.8 K, 30000 kPa, Crystal, Bellows volumetry	1569
312.8 K, 40000 kPa, Crystal, Bellows volumetry	1572
312.8 K, 50000 kPa, Crystal, Bellows volumetry	1576
312.8 K, 60000 kPa, Crystal, Bellows volumetry	1579
312.8 K, 70000 kPa, Crystal, Bellows volumetry	1582
312.8 K, 80000 kPa, Crystal, Bellows volumetry	1585
312.8 K, 90000 kPa, Crystal, Bellows volumetry	1588
312.8 K, 100000 kPa, Crystal, Bellows volumetry	1591
312.8 K, 110000 kPa, Crystal, Bellows volumetry	1594
312.8 K, 120000 kPa, Crystal, Bellows volumetry	1597
312.8 K, 130000 kPa, Crystal, Bellows volumetry	1600
312.8 K, 140000 kPa, Crystal, Bellows volumetry	1603
312.8 K, 150000 kPa, Crystal, Bellows volumetry	1606
312.8 K, 160000 kPa, Crystal, Bellows volumetry	1609
312.8 K, 170000 kPa, Crystal, Bellows volumetry	1612
312.8 K, 180000 kPa, Crystal, Bellows volumetry	1615
312.8 K, 190000 kPa, Crystal, Bellows volumetry	1617
312.8 K, 200000 kPa, Crystal, Bellows volumetry	1620
332.7 K, 10000 kPa, Crystal, Bellows volumetry	1546
332.7 K, 20000 kPa, Crystal, Bellows volumetry	1550
332.7 K, 30000 kPa, Crystal, Bellows volumetry	1554
332.7 K, 40000 kPa, Crystal, Bellows volumetry	1557
332.7 K, 50000 kPa, Crystal, Bellows volumetry	1561
332.7 K, 60000 kPa, Crystal, Bellows volumetry	1564
332.7 K, 70000 kPa, Crystal, Bellows volumetry	1567
332.7 K, 80000 kPa, Crystal, Bellows volumetry	1571
332.7 K, 90000 kPa, Crystal, Bellows volumetry	1574
332.7 K, 100000 kPa, Crystal, Bellows volumetry	1577
332.7 K, 110000 kPa, Crystal, Bellows volumetry	1581
332.7 K, 120000 kPa, Crystal, Bellows volumetry	1584
332.7 K, 130000 kPa, Crystal, Bellows volumetry	1587
332.7 K, 140000 kPa, Crystal, Bellows volumetry	1590
332.7 K, 150000 kPa, Crystal, Bellows volumetry	1593
332.7 K, 160000 kPa, Crystal, Bellows volumetry	1596
332.7 K, 170000 kPa, Crystal, Bellows volumetry	1599
332.7 K, 180000 kPa, Crystal, Bellows volumetry	1602
332.7 K, 190000 kPa, Crystal, Bellows volumetry	1605
332.7 K, 200000 kPa, Crystal, Bellows volumetry	1608
352.7 K, 10000 kPa, Liquid, Bellows volumetry	1428
352.7 K, 20000 kPa, Liquid, Bellows volumetry	1434
352.7 K, 30000 kPa, Liquid, Bellows volumetry	1440
352.7 K, 40000 kPa, Liquid, Bellows volumetry	1446
352.7 K, 50000 kPa, Liquid, Bellows volumetry	1451
352.7 K, 60000 kPa, Liquid, Bellows volumetry	1456
352.7 K, 70000 kPa, Liquid, Bellows volumetry	1461
352.7 K, 80000 kPa, Liquid, Bellows volumetry	1466
352.7 K, 90000 kPa, Liquid, Bellows volumetry	1471
352.7 K, 100000 kPa, Crystal, Bellows volumetry	1562
352.7 K, 110000 kPa, Crystal, Bellows volumetry	1566
352.7 K, 120000 kPa, Crystal, Bellows volumetry	1570
352.7 K, 130000 kPa, Crystal, Bellows volumetry	1573
352.7 K, 140000 kPa, Crystal, Bellows volumetry	1576
352.7 K, 150000 kPa, Crystal, Bellows volumetry	1580
352.7 K, 160000 kPa, Crystal, Bellows volumetry	1583
352.7 K, 170000 kPa, Crystal, Bellows volumetry	1586
352.7 K, 180000 kPa, Crystal, Bellows volumetry	1589
352.7 K, 190000 kPa, Crystal, Bellows volumetry	1592
352.7 K, 200000 kPa, Crystal, Bellows volumetry	1595
353.15 K, 101.33 kPa, Liquid, Vibrating tube method	1421.8
372.8 K, 10000 kPa, Liquid, Bellows volumetry	1410
372.8 K, 20000 kPa, Liquid, Bellows volumetry	1416
372.8 K, 30000 kPa, Liquid, Bellows volumetry	1423
372.8 K, 40000 kPa, Liquid, Bellows volumetry	1428
372.8 K, 50000 kPa, Liquid, Bellows volumetry	1434
372.8 K, 60000 kPa, Liquid, Bellows volumetry	1439
372.8 K, 70000 kPa, Liquid, Bellows volumetry	1445
372.8 K, 80000 kPa, Liquid, Bellows volumetry	1450
372.8 K, 90000 kPa, Liquid, Bellows volumetry	1455
372.8 K, 100000 kPa, Liquid, Bellows volumetry	1460
372.8 K, 110000 kPa, Liquid, Bellows volumetry	1465
372.8 K, 120000 kPa, Liquid, Bellows volumetry	1470
372.8 K, 130000 kPa, Liquid, Bellows volumetry	1474
372.8 K, 140000 kPa, Liquid, Bellows volumetry	1479
372.8 K, 150000 kPa, Liquid, Bellows volumetry	1483
372.8 K, 160000 kPa, Liquid, Bellows volumetry	1488
372.8 K, 170000 kPa, Liquid, Bellows volumetry	1492
372.8 K, 180000 kPa, Liquid, Bellows volumetry	1497
372.8 K, 190000 kPa, Liquid, Bellows volumetry	1501
372.8 K, 200000 kPa, Liquid, Bellows volumetry	1505
373.15 K, 101.33 kPa, Liquid, Vibrating tube method	1404.9
392.9 K, 10000 kPa, Liquid, Bellows volumetry	1393
392.9 K, 20000 kPa, Liquid, Bellows volumetry	1400
392.9 K, 30000 kPa, Liquid, Bellows volumetry	1406
392.9 K, 40000 kPa, Liquid, Bellows volumetry	1412
392.9 K, 50000 kPa, Liquid, Bellows volumetry	1418
392.9 K, 60000 kPa, Liquid, Bellows volumetry	1424
392.9 K, 70000 kPa, Liquid, Bellows volumetry	1429
392.9 K, 80000 kPa, Liquid, Bellows volumetry	1435
392.9 K, 90000 kPa, Liquid, Bellows volumetry	1440
392.9 K, 100000 kPa, Liquid, Bellows volumetry	1445
392.9 K, 110000 kPa, Liquid, Bellows volumetry	1450
392.9 K, 120000 kPa, Liquid, Bellows volumetry	1455
392.9 K, 130000 kPa, Liquid, Bellows volumetry	1460
392.9 K, 140000 kPa, Liquid, Bellows volumetry	1464
392.9 K, 150000 kPa, Liquid, Bellows volumetry	1469
392.9 K, 160000 kPa, Liquid, Bellows volumetry	1474
392.9 K, 170000 kPa, Liquid, Bellows volumetry	1478
392.9 K, 180000 kPa, Liquid, Bellows volumetry	1483
392.9 K, 190000 kPa, Liquid, Bellows volumetry	1487
392.9 K, 200000 kPa, Liquid, Bellows volumetry	1491
412.9 K, 10000 kPa, Liquid, Bellows volumetry	1377
412.9 K, 20000 kPa, Liquid, Bellows volumetry	1384
412.9 K, 30000 kPa, Liquid, Bellows volumetry	1390
412.9 K, 40000 kPa, Liquid, Bellows volumetry	1397
412.9 K, 50000 kPa, Liquid, Bellows volumetry	1403
412.9 K, 60000 kPa, Liquid, Bellows volumetry	1408
412.9 K, 70000 kPa, Liquid, Bellows volumetry	1414
412.9 K, 80000 kPa, Liquid, Bellows volumetry	1420
412.9 K, 90000 kPa, Liquid, Bellows volumetry	1425
412.9 K, 100000 kPa, Liquid, Bellows volumetry	1431
412.9 K, 110000 kPa, Liquid, Bellows volumetry	1436
412.9 K, 120000 kPa, Liquid, Bellows volumetry	1441
412.9 K, 130000 kPa, Liquid, Bellows volumetry	1446
412.9 K, 140000 kPa, Liquid, Bellows volumetry	1451
412.9 K, 150000 kPa, Liquid, Bellows volumetry	1456
412.9 K, 160000 kPa, Liquid, Bellows volumetry	1460
412.9 K, 170000 kPa, Liquid, Bellows volumetry	1465
412.9 K, 180000 kPa, Liquid, Bellows volumetry	1469
412.9 K, 190000 kPa, Liquid, Bellows volumetry	1474
412.9 K, 200000 kPa, Liquid, Bellows volumetry	1478
432.6 K, 10000 kPa, Liquid, Bellows volumetry	1360
432.6 K, 20000 kPa, Liquid, Bellows volumetry	1367
432.6 K, 30000 kPa, Liquid, Bellows volumetry	1374
432.6 K, 40000 kPa, Liquid, Bellows volumetry	1381
432.6 K, 50000 kPa, Liquid, Bellows volumetry	1387
432.6 K, 60000 kPa, Liquid, Bellows volumetry	1393
432.6 K, 70000 kPa, Liquid, Bellows volumetry	1399
432.6 K, 80000 kPa, Liquid, Bellows volumetry	1405
432.6 K, 90000 kPa, Liquid, Bellows volumetry	1411
432.6 K, 100000 kPa, Liquid, Bellows volumetry	1417
432.6 K, 110000 kPa, Liquid, Bellows volumetry	1422
432.6 K, 120000 kPa, Liquid, Bellows volumetry	1427
432.6 K, 130000 kPa, Liquid, Bellows volumetry	1432
432.6 K, 140000 kPa, Liquid, Bellows volumetry	1437
432.6 K, 150000 kPa, Liquid, Bellows volumetry	1442
432.6 K, 160000 kPa, Liquid, Bellows volumetry	1447
432.6 K, 170000 kPa, Liquid, Bellows volumetry	1451
432.6 K, 180000 kPa, Liquid, Bellows volumetry	1456
432.6 K, 190000 kPa, Liquid, Bellows volumetry	1461
432.6 K, 200000 kPa, Liquid, Bellows volumetry	1465
452.5 K, 10000 kPa, Liquid, Bellows volumetry	1344
452.5 K, 20000 kPa, Liquid, Bellows volumetry	1351
452.5 K, 30000 kPa, Liquid, Bellows volumetry	1359
452.5 K, 40000 kPa, Liquid, Bellows volumetry	1366
452.5 K, 50000 kPa, Liquid, Bellows volumetry	1372
452.5 K, 60000 kPa, Liquid, Bellows volumetry	1379
452.5 K, 70000 kPa, Liquid, Bellows volumetry	1385
452.5 K, 80000 kPa, Liquid, Bellows volumetry	1391
452.5 K, 90000 kPa, Liquid, Bellows volumetry	1397
452.5 K, 100000 kPa, Liquid, Bellows volumetry	1402
452.5 K, 110000 kPa, Liquid, Bellows volumetry	1408
452.5 K, 120000 kPa, Liquid, Bellows volumetry	1414
452.5 K, 130000 kPa, Liquid, Bellows volumetry	1419
452.5 K, 140000 kPa, Liquid, Bellows volumetry	1423
452.5 K, 150000 kPa, Liquid, Bellows volumetry	1429
452.5 K, 160000 kPa, Liquid, Bellows volumetry	1434
452.5 K, 170000 kPa, Liquid, Bellows volumetry	1439
452.5 K, 180000 kPa, Liquid, Bellows volumetry	1444
452.5 K, 190000 kPa, Liquid, Bellows volumetry	1448
452.5 K, 200000 kPa, Liquid, Bellows volumetry	1453
472.4 K, 10000 kPa, Liquid, Bellows volumetry	1327
472.4 K, 20000 kPa, Liquid, Bellows volumetry	1336
472.4 K, 30000 kPa, Liquid, Bellows volumetry	1344
472.4 K, 40000 kPa, Liquid, Bellows volumetry	1351
472.4 K, 50000 kPa, Liquid, Bellows volumetry	1358
472.4 K, 60000 kPa, Liquid, Bellows volumetry	1364
472.4 K, 70000 kPa, Liquid, Bellows volumetry	1371
472.4 K, 80000 kPa, Liquid, Bellows volumetry	1377
472.4 K, 90000 kPa, Liquid, Bellows volumetry	1383
472.4 K, 100000 kPa, Liquid, Bellows volumetry	1389
472.4 K, 110000 kPa, Liquid, Bellows volumetry	1395
472.4 K, 120000 kPa, Liquid, Bellows volumetry	1400
472.4 K, 130000 kPa, Liquid, Bellows volumetry	1405
472.4 K, 140000 kPa, Liquid, Bellows volumetry	1411
472.4 K, 150000 kPa, Liquid, Bellows volumetry	1416
472.4 K, 160000 kPa, Liquid, Bellows volumetry	1421
472.4 K, 170000 kPa, Liquid, Bellows volumetry	1426
472.4 K, 180000 kPa, Liquid, Bellows volumetry	1431
472.4 K, 190000 kPa, Liquid, Bellows volumetry	1436
472.4 K, 200000 kPa, Liquid, Bellows volumetry	1440
